A melting point compilation (Tetko et al.; mined from patent text by program, amines drawn as free bases though some values may be those of a salt)

SMILES	melting point
Nc1cc2c(cc1Br)C(=O)OC2	235 to 241 °C
CC(=O)C=Cc1ccc2c(c1)OCCO2	80 °C
O=C(O)Cc1ccc(-n2cc(F)cn2)cc1	165 to 167 °C
CC(=O)NNc1ccc(Cl)c(CN2OCC(C)(C)C2=O)c1	178 to 180 °C
O=C(NC1CCNC1)C12CC3CC(CC(C3)C1)C2 (configuration not stated)	186 to 188 °C
CC(C)(C)NC(=O)c1ccc(C(O)CCCc2cn([Si](C)(C)C)cn2)cc1 (configuration not stated)	141 to 143 °C
CC1=C(C#N)C(C)(c2ccccc2)C(C#N)=C(C)N1	195 to 196 °C
Cc1cc(Cl)cc(C(=O)NC2(C)CC2)c1NC(=O)c1cc(Br)nn1-c1ncccc1Cl	> 250 °C
CCCc1cc(Cl)cc2nc(Cc3ccc(OC)c(OC4CCCC4)c3)oc12	54 to 55 °C
CCC(=O)n1c(=O)[nH]c(=O)n1C(=O)CC	208 °C
Cc1ccc(S(=O)(=O)NC(=O)C2C(=O)CC(C(C)(C)C)CC2=O)cc1 (configuration not stated)	162 to 163 °C
N[C@@H](CS(=O)(=O)O)C(=O)O	273 to 275 °C
COc1cc(O)ccc1N	168 to 170 °C
CCn1c2ccccc2c2oc(C(=O)Cl)cc21	127 to 129 °C
O=C1CC[C@@H](CO)N1Cc1ccccc1	82 to 84 °C
COc1ccc2c(C(=O)N3CCC[C@H]3C(=O)O)cc3cc4c(cc3c2c1)OCO4	207 to 208 °C
CN1C2CCC1CC(c1c[nH]c3cc(F)ccc13)C2 (configuration not stated)	168 to 169 °C
CC(C)(C)c1cc(C2CC(=O)N(c3ccccc3)C2=O)cc(C(C)(C)C)c1O (configuration not stated)	204 °C
CCCn1c(=O)c2[nH]cnc2n(-c2ccc(Cl)cc2)c1=O	233 to 234 °C
CC(=O)C(=Cc1ccc([N+](=O)[O-])cc1)CC(=O)OCCC#N	98 to 100 °C
C=Cc1cc(CNC(=O)OC(C)(C)C)cc(Cl)c1NS(C)(=O)=O	133 to 135 °C
CCCCCCC1=C(Br)C(CBr)(NCc2ccccc2)OC1=O (configuration not stated)	72 to 75 °C
NS(=O)(=O)c1cc2cccc(O)c2s1	196 to 198 °C
N#CN1CCN(c2nn(-c3ccccc3)c3cc(F)ccc23)CC1	172 to 174 °C
CC(=O)Nc1ncc(S(=O)(=O)NC(C)(C)CO)s1	206 °C
C#CCN1CC(=O)Oc2cc(F)c(NN)cc21	146 °C
Nc1ccc2c(c1)C(=O)NC(C(Cl)(Cl)Cl)O2 (configuration not stated)	172 to 174 °C

SMILES	melting point
CC(=O)OC1=CCC2C3CCC4CCC(OC(C)=O)CC4(C)C3CCC12C (configuration not stated)	133 to 134 °C
CC(N1CCN(c2ncn(Cc3ccc(C(C)(C)C)cc3)n2)CC1)C(O)(Cn1cncn1)c1ccc(F)cc1F (configuration not stated)	84 to 86 °C
COc1ccc2c(c1)CC[C@@H]1[C@@H]2CC[C@@]2(C)[C@H]1CCC2(OC)OC	104 to 116 °C
CCN(CC)CCC(=O)O	65 to 67 °C
CC(C)(C)c1cccc(S(=O)(=O)n2ccc3cc(C(F)(F)F)ccc32)c1	84 to 86 °C
CC(=O)SCC(=O)Nc1ccc(C(=O)NCCO)cc1	190 to 192 °C
CC12CCC(C1)C(C)(C)C2(S)CCO (configuration not stated)	55 to 60 °C
Cc1ncc(-c2nc3cc4c(cc3[nH]2)NC(=O)C4(C)C)cn1	> 350 °C
CN1C(=O)CCC2=C1CCc1c(F)cccc12	137 to 138 °C
CC(=O)OC1CCC2(C)C3=CCC4(C)C(C(C)=O)CCC4C3CCC2C1 (configuration not stated)	163 to 165 °C
NP(=O)(O)CCc1ccccc1	226 °C
CC1CCC2(C)C(=CCC3C4CC(Br)C(=O)C4(C)CCC32)C1 (configuration not stated)	186 to 188 °C
Cn1c(=O)c2ccccc2n(C)c1=S	184 °C
COC(=O)c1sc(C)c(N)c1C	88 to 89 °C
CCCc1cc(=O)c(C(=O)OC)c(C)[nH]1	171 to 172 °C
CC(C)(C)C#Cc1cc(Cl)cc2c1OC(C(F)(F)F)C(C(=O)O)=C2 (configuration not stated)	218 to 222 °C
CCCCCC(C)C(C)c1cc(OC)c2c(c1)OC(C)(C)C1=C2CN(C(=N)OC)CC1 (configuration not stated)	134 to 136 °C
Cc1nnc(-c2ccc3occ(C#N)c3c2)o1	188 to 189 °C
O=C1Nc2ccc(F)nc2N2CCNCC12 (configuration not stated)	305 to 308 °C
COc1cccc2c1CC1CC(CN3CCC(c4c[nH]c5ccccc45)CC3)CN(C)C1C2 (configuration not stated)	220 to 223 °C
CC(C)CCCC(C)C1CCC2C3CCC4=CC(=O)C=CC4(C)C3CCC12C (configuration not stated)	50 to 57 °C
c1ccc2c(c1)CSc1nnnn1-2	137 °C
c1ccc(C(CC2CC3CCN2CC3)c2ccccc2)cc1 (configuration not stated)	87.5 to 89 °C
NP(N)(=O)c1ccccc1	187 to 191 °C
O=c1c2ccc(F)cc2oc2ccc(C(F)(F)F)cc12	140 to 142 °C
O=C1c2c(Sc3ccccc3)ccc(Sc3ccc(O)cc3)c2C(=O)c2c(Sc3ccccc3)ccc(Sc3ccc(O)cc3)c21	> 340 °C
CN1CCN(c2cccc3c2C[C@H](NC(=O)CCc2ccccc2)CC3)CC1	184 to 186 °C

Results, then the compound that gave them:

melting point	SMILES
150 to 157 °C	CC(C)(C)CC(=O)NC(Cc1ccc(OCc2ccccc2)cc1)C(=O)Nc1c(F)cc(F)cc1F (configuration not stated)
288 to 290 °C	N#Cc1cnc2c(sc3c([N+](=O)[O-])cccc32)c1Nc1cccc(Br)c1
176 to 180 °C	Nc1cccc(-c2ccc(CCN3CCC4(CC3)NC(=O)N(CCc3ccccc3)C4=O)cc2)n1
238 °C	CC(=O)NC[C@H]1CN(c2ccc(-n3cc(-c4ccc(Cl)cc4)cn3)c(F)c2)C(=O)O1
160 to 161 °C	CCOC(=O)C1CCN(c2ncc(NS(=O)(=O)c3ccccc3Br)c(NCc3ccc4c(c3)OCO4)n2)CC1
88 to 89 °C	O=C(OSc1ccccn1)c1ccc(Cc2ccc(F)cc2)o1
> 250 °C	Nc1nc2c(s1)CCN(C(=O)c1ccc(NC(=O)c3ccccc3-c3ccccc3)cc1)c1ccccc1-2
198 to 199 °C	NC(=O)COc1ccccc1C(=O)Nc1ccc(C(=O)N2CCCCc3ccccc32)cc1
79 °C	O=C(O)CCc1cc2cc(Cl)ccc2n1S(=O)(=O)c1ccc2[nH]ccc2c1
148 to 151 °C	CCOC(=O)c1cnc2ccc(OCC)nc2c1Nc1ccc(Oc2ccccn2)cc1
300 °C	CCOC(=O)c1c[nH]c2cnc3cc(F)c(F)cc3c2c1=O
136 to 137 °C	COc1ccccc1CCN(CCCCC(=O)c1ccc2c(c1)CCN2C(=O)Nc1ccccc1)C(=O)OC(C)(C)C
197 to 200 °C	CC(C(=O)O)c1ccc2oc(-c3cccnc3)nc2c1 (configuration not stated)
125 to 127 °C	CN(C)Cc1cnn(C)c1-c1ccc(Cl)cc1C(O)c1ccccc1F (configuration not stated)
255 to 258 °C	CN(C)CCCOc1cc2oc3cc(-c4ccccc4Cl)c4c(c3c2cc1O)C(=O)NC4=O
> 250 °C	CCCc1nc2c(N)nc3ccccc3c2n1CC1(O)CCS(=O)(=O)CC1
176 to 178 °C	CCOC(=O)C1(S(=O)(=O)c2ccc(OC)cc2)CCN(Cc2ccc(-c3ccccc3)cc2)CC1
169 °C	O=C(O)CCCCc1cc2nc(Cl)ccc2n1S(=O)(=O)c1ccc2ncsc2c1
162 to 164 °C	Cc1ccc(S(=O)(=O)OCCCOc2ccc([N+](=O)[O-])c(CS(=O)(=O)c3cccc4ccccc34)c2)cc1
158 to 159 °C	COCCOc1ccc(CCC(=O)NS(N)(=O)=O)c(Oc2ncc(C(F)(F)F)cc2Cl)c1
203 to 206 °C	O=Nc1c(-c2ccc(Cl)cc2)nc2sc3ccccc3n12
297 °C	O=C(CCc1ccccc1)Nc1ccc(C(=O)NN=C2C(=O)Nc3ccc(I)cc32)cc1
168 to 170 °C	C[Si](C)(C)c1ccc2cc3c(cc2c1)C(=O)c1ccccc1C3=O
68 to 69 °C	O=Cc1c2ccccc2c(OCCOCc2ccccc2)c2ccccc12

melting point	SMILES
261 to 262 °C	O=C1NCCc2c(-c3ccc4ccccc4c3)[nH]c3cccc1c23
226 to 228 °C	COC(=O)c1sccc1NC(=S)N1CCN(c2ncnc3cc(OC)c(OC)cc23)CC1
148 °C	CCCOc1ccccc1-c1nc(NCCCO)cc(=O)[nH]1
168 to 169 °C	Oc1ccc(-c2ccc3ccccc3c2)nc1
96.1 to 97.1 °C	CC(C)c1onc(-c2c(Cl)cccc2Cl)c1COc1ccc(N(C)Cc2ccc(C(=O)O)cc2)c(C(F)(F)F)n1
165 to 166 °C	COc1ccc(C(=O)Nc2cc(C(=O)NCc3ccccc3)ccn2)cc1
180 to 183 °C	Cc1[nH]c(-c2ccccc2)c(N)c1C(=O)C(C)C
76.2 °C	C#CCOc1cc(Oc2ccccc2Cl)ncn1
> 260 °C	NC(=O)c1cc2c(Oc3ccc(C(=O)N4CCOCC4)cc3)cncc2s1
175 to 178 °C	COc1cccc(-c2nn(Cc3oc4ccccc4c(=O)c3-c3cccc(F)c3)c3ncnc(N)c23)c1
161 to 163 °C	O=C1C(c2nc3c(cc2O)OCO3)c2ccccc2N1Cc1ccc(C(F)(F)F)o1 (configuration not stated)
220 to 221 °C	CC(C)n1nc(-c2sc(NC(=O)c3ccccc3Cl)nc2-c2ccccc2)ccc1=O
101 to 104 °C	CNS(=O)(=O)OCCOc1ccc(Cl)cc1
230 to 231 °C	CCCCNc1cc(C(=O)O)cc(S(N)(=O)=O)c1Nc1ccccc1
247 to 248 °C	CC1(C)CCc2c(-c3ccoc3)nc3sc4c(NCc5cccnc5)ncnc4c3c2C1
198 to 200 °C	c1cnc(N2CCN(Cc3nc4ccccc4[nH]3)CC2)nc1
116 to 117 °C	O=C1C(=Cc2ccoc2)CCc2cc(OCCn3ccnc3)ccc21
162 to 164 °C	Cc1cc(C(=S)NCc2ccc(Br)cc2F)c(OCC(=O)O)cc1F
209 to 212 °C	Cc1nc2c(-c3cccc(N4CCN(CCO)CC4)c3)cnn2c(N)c1-c1ccc(F)cc1
109 to 111 °C	CCN1c2ncc(CCc3ccncc3)cc2C(=O)N(C)c2ccc(F)nc21
243 to 245 °C	COc1cccc(OC)c1Cn1cnc2ccc(O)cc2c1=O
110 °C	CCOC(=O)C1=C(N)N=C(OCC)C(C(=O)OCC)C1c1ccco1 (configuration not stated)
121 to 122 °C	CC(=O)OCCOc1cccc(C(N)=O)c1
209 to 210 °C	CCOC(=O)c1nn(-c2ccccc2C)c(=O)c2c(N)scc12
